{"source": "paper PMC10005754", "about": "“Non-Nutritive Sweeteners Acesulfame Potassium and Sucralose Are Competitive Inhibitors of the Human P-glycoprotein/Multidrug Resistance Protein 1 (PGP/MDR1)” (Nutrients, 2023)", "target": "T1, P-glycoprotein (PGP/MDR1) (Homo sapiens, UniProt P08183)", "T1 construct": "gene ABCB1; recombinant human PGP in membrane vesicles (Human MDR1 vesicles)", "T1 sequence (P08183 whole entry)": "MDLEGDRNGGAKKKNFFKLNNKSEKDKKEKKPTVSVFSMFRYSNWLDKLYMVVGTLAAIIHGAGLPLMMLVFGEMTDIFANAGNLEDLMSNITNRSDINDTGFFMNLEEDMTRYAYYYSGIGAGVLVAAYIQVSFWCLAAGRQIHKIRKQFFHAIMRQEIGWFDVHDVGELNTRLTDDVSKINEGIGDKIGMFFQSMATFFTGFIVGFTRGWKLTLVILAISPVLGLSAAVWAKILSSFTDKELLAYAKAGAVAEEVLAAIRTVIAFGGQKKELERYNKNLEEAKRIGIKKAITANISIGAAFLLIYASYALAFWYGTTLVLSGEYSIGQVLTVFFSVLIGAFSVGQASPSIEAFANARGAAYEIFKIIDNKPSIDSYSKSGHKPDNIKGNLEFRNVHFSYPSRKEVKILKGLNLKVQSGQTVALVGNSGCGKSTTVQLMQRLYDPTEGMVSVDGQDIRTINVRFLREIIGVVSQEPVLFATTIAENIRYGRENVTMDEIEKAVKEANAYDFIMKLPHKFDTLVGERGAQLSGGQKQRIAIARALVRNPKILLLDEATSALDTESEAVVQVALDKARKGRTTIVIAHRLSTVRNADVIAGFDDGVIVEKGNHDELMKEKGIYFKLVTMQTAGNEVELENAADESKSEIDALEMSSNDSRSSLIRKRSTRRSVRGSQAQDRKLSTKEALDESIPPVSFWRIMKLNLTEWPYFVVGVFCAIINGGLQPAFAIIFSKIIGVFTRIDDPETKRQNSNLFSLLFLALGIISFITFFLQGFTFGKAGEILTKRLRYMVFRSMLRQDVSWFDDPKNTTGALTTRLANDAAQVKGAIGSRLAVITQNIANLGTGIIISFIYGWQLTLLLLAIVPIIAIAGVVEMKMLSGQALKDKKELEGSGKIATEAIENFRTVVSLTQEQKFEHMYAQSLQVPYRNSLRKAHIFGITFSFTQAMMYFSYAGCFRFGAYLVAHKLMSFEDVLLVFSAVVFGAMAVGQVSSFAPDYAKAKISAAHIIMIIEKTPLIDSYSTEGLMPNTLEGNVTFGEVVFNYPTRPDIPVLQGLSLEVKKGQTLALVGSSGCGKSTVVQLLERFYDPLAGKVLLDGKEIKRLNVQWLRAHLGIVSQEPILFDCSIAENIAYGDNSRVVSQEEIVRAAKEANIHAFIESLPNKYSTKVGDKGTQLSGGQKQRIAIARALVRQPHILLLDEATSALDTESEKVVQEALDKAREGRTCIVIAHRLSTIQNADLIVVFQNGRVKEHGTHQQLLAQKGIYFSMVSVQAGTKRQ", "experiment": "ATPase stimulation (ADP-Glo Max) in human MDR1 vesicles; also Calcein-AM retention in HepG2 cells", "assay_type": "biochemical"}
{"compound": "OC[C@H]1O[C@H](O[C@]2(CCl)O[C@H](CCl)[C@@H](O)[C@@H]2O)[C@H](O)[C@@H](O)[C@H]1Cl", "note": "[Sucr, sucralose]", "values": [{"measurement": "EC50", "result": 0.056, "unit": "nM"}]}
